Measured values as given in PubChem BioAssay AID1963962 (Molecular Pharmacology Branch, DTP, NCI, 2024).

System: 967376-340-R-J2-PDC multicell spheroid viability
Experiment: Anticancer human tumor 967376-340-R-J2-PDC patient-derived colon adenocarcinoma cell line growth inhibition [PI3K]
Conditions: for IC50: curve of first compound; for viability, T/C: stronger effect = lower value; active = viability on the fitted dose curve at most 10% of control; inactive = the rest
Excerpt: Combinatorial screen of targeted agents with the PI3K inhibitors inavolisib, alpelisib, duvelisib, and copanlisib in multi-cell type tumor spheroids
A high-throughput screen of multi-cell type tumor spheroids was designed to identify active combinations of targeted small molecules and PI3K pathway inhibitors. Complex spheroids include a stromal component modeled by human endothelial cells (HUVEC) and fibroblasts modeled by human mesenchymal stem cells (MSCs). The concentration ranges selected for each drug and investigational agent were based upon clinically achievable concentrations if the clinical Cmax of the agent was known.
Compounds. The drugs and investigational agents: inavolisib (NSC800729), alpelisib (NSC765974), duvelisib (NSC772469), copanlisib (NSC816437), ipatasertib (NSC767898), afuresertib (NSC778305), talazoparib (NSC767125), sapanisertib (NSC764658), selumetinib (NSC741078), tovorafenib (DAY101, NSC766906), vemurafenib (NSC761431), ravoxertinib (NSC781343), sotorasib (NSC818433), MRTX1133 (NSC 836407), abemaciclib (NSC 768073), palbociclib (NSC758247), venetoclax (NSC 766270), SY5609 (NSC837396), enzalutamide (NSC755605), and darolutamide (NSC825331), were obtained from the National Cancer Institute (NCI) Developmental Therapeutics Program Chemical Repository. The FDA-approved anticancer drug set is available from the NCI Developmental Therapeutics Program. […] The stock solutions were prepared in dimethyl sulfoxide (DMSO, Sigma-Aldrich, St. Louis, MO, cat. D2650) at 800-fold the tested concentration and stored at -70 degrees C prior to their use. All drugs and investigational agents were tested over a range starting from a high concentration at or near the clinical Cmax and decreasing in half-log increments. If the clinical Cmax for an agent had not been determined, the highest concentration tested was 10 microM.
Cell Culture. All cells were maintained in an incubator at 37 degrees C and 5% CO2 with 95% humidity. The PDC lines were cultured according to standard operating procedures established by the NCI PDMR (https://pdmr.cancer.gov/sops/default.htm). All PDCs were thawed and cultured in Matrigel-coated flasks prepared with a working solution of 1X Ham's F-12 nutrient mix, without supplementation (Invitrogen, Waltham, MA, cat. 11765054), 100 U/mL penicillin-streptomycin (Invitrogen, cat. 15140122), and 2.5% Matrigel (Corning Inc., Corning, NY, cat. 354248) for the first three passages. The 354836-022-R-J1-PDC, 475296-252-R-J1-PDC, and 997726-040-R-J2-PDC lines were cultured in 6A media, which includes advanced DMEM/F-12 (Thermo Fisher Scientific, cat. 12634028), 10 mM HEPES (Thermo Fisher Scientific, cat. 15630080), 1X GlutaMAX supplement (Thermo Fisher Scientific, cat. 35050061), 0.1 mg/mL primocin (InvivoGen, San Diego, CA, cat. ant-pm-2), 10% defined fetal bovine serum, heat inactivated (HyClone Laboratories Inc., Logan, UT, cat. SH30070.03HI), 50% L-WRN conditioned media (ATCC, cat. CRL-3276), 1.25 mM N-Acetyl-L-cysteine (Sigma-Aldrich, cat. A9165), 10 mM nicotinamide (Sigma-Aldrich, cat. N0636), 1X B-27 supplement (Thermo Fisher Scientific, cat. 17504044), 1X N-2 supplement (Thermo Fisher Scientific, cat. 17502048), and 10 microM Y-27632 dihydrochloride (Tocris Bioscience, Bristol, United Kingdom, cat. 1254). The 624824-186-R-J2-PDC line was cultured in 6C/Colon 1B media, which includes all 6A media components plus 50 ng/mL human EGF recombinant protein (Thermo Fisher Scientific, cat. PHG0311). […]
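Also: spheroids exposed to agents for 7 days before read-out.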
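For viability, T/C in this document: luminescence used as surrogate of cell viability.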

CC(=O)c1c(C)c2cnc(Nc3ccc(N4CCNCC4)cn3)nc2n(C2CCCC2)c1=O + Cc1nc(NC(=O)N2CCCC2C(N)=O)sc1-c1ccnc(C(C)(C)C(F)(F)F)c1
24.5 nM: IC50 (second compound 10 µM)
inactive: viability, T/C (second compound 0.0316 µM, first compound 0.000316 µM) 98.9% | viability, T/C (second compound 0.0316 µM, first compound 0.001 µM) 84.7% | viability, T/C (second compound 0.0316 µM, first compound 0.00316 µM) 101% | viability, T/C (second compound 0.0316 µM, first compound 0.01 µM) 90.7% | viability, T/C (second compound 0.0316 µM, first compound 0.0316 µM) 102% | viability, T/C (second compound 0.0316 µM, first compound 0.1 µM) 77.3% | viability, T/C (second compound 0.1 µM, first compound 0.000316 µM) 105% | viability, T/C (second compound 0.1 µM, first compound 0.001 µM) 94.3% | viability, T/C (second compound 0.1 µM, first compound 0.00316 µM) 88.3% | viability, T/C (second compound 0.1 µM, first compound 0.01 µM) 99.4% | viability, T/C (second compound 0.1 µM, first compound 0.0316 µM) 109% | viability, T/C (second compound 0.1 µM, first compound 0.1 µM) 75.6% | viability, T/C (second compound 0.316 µM, first compound 0.000316 µM) 89% | viability, T/C (second compound 0.316 µM, first compound 0.001 µM) 82.1% | viability, T/C (second compound 0.316 µM, first compound 0.00316 µM) 75% | viability, T/C (second compound 0.316 µM, first compound 0.01 µM) 82.6% | viability, T/C (second compound 0.316 µM, first compound 0.0316 µM) 84.2% | viability, T/C (second compound 0.316 µM, first compound 0.1 µM) 101% | viability, T/C (second compound 1 µM, first compound 0.000316 µM) 65% | viability, T/C (second compound 1 µM, first compound 0.001 µM) 74.4% | viability, T/C (second compound 1 µM, first compound 0.00316 µM) 88.7% | viability, T/C (second compound 1 µM, first compound 0.01 µM) 79.1% | viability, T/C (second compound 1 µM, first compound 0.0316 µM) 75.5% | viability, T/C (second compound 1 µM, first compound 0.1 µM) 76.3% | viability, T/C (second compound 3.16 µM, first compound 0.000316 µM) 59.4% | viability, T/C (second compound 3.16 µM, first compound 0.001 µM) 68.2% | viability, T/C (second compound 3.16 µM, first compound 0.00316 µM) 74.5% | viability, T/C (second compound 3.16 µM, first compound 0.01 µM) 57.8% | viability, T/C (second compound 3.16 µM, first compound 0.0316 µM) 63.8% | viability, T/C (second compound 3.16 µM, first compound 0.1 µM) 60.4% | viability, T/C (second compound 10 µM, first compound 0.000316 µM) 62.2% | viability, T/C (second compound 10 µM, first compound 0.001 µM) 50.8% | viability, T/C (second compound 10 µM, first compound 0.00316 µM) 57.2% | viability, T/C (second compound 10 µM, first compound 0.01 µM) 55.9% | viability, T/C (second compound 10 µM, first compound 0.0316 µM) 46.3% | viability, T/C (second compound 10 µM, first compound 0.1 µM) 47.1%
> 100 nM: IC50 (second compound 0.0316 µM) | IC50 (second compound 0.1 µM) | IC50 (second compound 0.316 µM) | IC50 (second compound 1 µM) | IC50 (second compound 3.16 µM)
